# Experimental data: patent publication US9066518B2, “Heterocyclic compounds as pesticides” (Bayer CropScience AG, priority 2009, dated 2015)
# Read-outs that look alike come from different tables or passages of the source.
# Key:
# [1] = system: green peach aphid (Myzus persicae); assay: Myzus test (spray treatment); format: in vivo; conditions: foliar, 144 h, read-out: activity (effect in %, aphids killed)
# Experimental: (§1) Solvents: 78 parts by weight of acetone
# • 1.5 parts by weight of dimethylformamide Emulsifier 0.5 part by weight of alkylaryl polyglycol ether
# To produce a suitable preparation of active compound, 1 part by weight of active compound is mixed with the stated amounts of solvents and emulsifier, and the concentrate is diluted with emulsifier-containing water to the desired concentration. Discs of leaves of Chinese cabbage (Brassica pekinensis) which are infested by all stages of the green peach aphid (Myzus persicae) are sprayed with an active compound preparation of the desired concentration.
# After 6 days, the effect in % is determined. 100% means that all aphids have been killed; 0% means that none of the aphids has been killed.
# [2] = logP determination (neutral / HCOOH); conditions: for chromatographic logP: HCOOH (formic acid), logP (HCOOH), HCOOH; for logP: logP (neutral), neutral
# [3] = system: larvae of the mustard beetle (Phaedon cochleariae); assay: Phaedon test (spray treatment); format: in vivo; conditions: application rate 500 g/ha; after 7 days; Chinese cabbage leaf discs
# Text: Solvents: 78 parts by weight of acetone • • 1.5 parts by weight of dimethylformamide Emulsifier: 0.5 part by weight of alkylaryl polyglycol ether […] Discs of leaves of Chinese cabbage (Brassica pekinensis) are sprayed with an active compound preparation of the desired concentration and, after drying, populated with larvae of the mustard beetle (Phaedon cochleariae).
# [4] = system: caterpillars of the armyworm (Spodoptera frugiperda); assay: Spodoptera frugiperda test (spray treatment); format: in vivo; conditions: application rate 500 g/ha; after 7 days; maize leaf discs
# Experimental: as §1
# (§2) • 1.5 parts by weight of dimethylformamide Emulsifier: 0.5 part by weight of alkylaryl polyglycol ether
# To produce a suitable preparation of active compound, 1 part by weight of active compound is mixed with the stated amounts of solvents and emulsifier, and the concentrate is diluted with emulsifier-containing water to the desired concentration. Discs of maize leaves (Zea mays) are sprayed with an active compound preparation of the desired concentration and, after drying, populated with caterpillars of the armyworm (Spodoptera frugiperda).
# After 7 days, the effect in % is determined. 100% means that all caterpillars have been killed; 0% means that none of the caterpillars has been killed.
# [5] = system: greenhouse red spider mite (Tetranychus urticae); assay: Tetranychus test; OP-resistant (spray treatment); format: in vivo; conditions: application rate 500 g/ha, after 6 days, bean leaf discs
# Experimental: as §1, §2
# To produce a suitable preparation of active compound, 1 part by weight of active compound is mixed with the stated amounts of solvents and emulsifier, and the concentrate is diluted with emulsifier-containing water to the desired concentration. Discs of bean leaves (Phaseolus vulgaris) which are infested by all stages of the greenhouse red spider mite (Tetranychus urticae) are sprayed with an active compound preparation of the desired concentration.
# After 6 days, the effect in % is determined. 100% means that all spider mites have been killed; 0% means that none of the spider mites has been killed.
# [6] = application rate 500 g/ha, after 6 days, Chinese cabbage leaf discs
SMILES,chromatographic logP [2],"pest or weed control at 500 g/ha [1, 6] [%]",further results
"c1cnc(-c2cccc(-c3cnn(-c4cccnc4)c3)n2)nc1 [Example 1, 2-[6-(1-Pyridin-3-yl-1H-pyrazol-4-yl)pyridin-2-yl]pyrimidine]",,,pest or weed control at 500 g/ha ([1]; in Brassica rapa): 100%; chromatographic logP (physchem): 1.36; logP (physchem): 1.52
"c1cncc(-n2cc(-c3cccc(-c4ncon4)n3)cn2)c1 [Example 5, 2-[1,2,4]Oxadiazol-3-yl-6-(1-pyridin-3-yl-1H-pyrazol-4-yl)pyridine]",,,pest or weed control at 500 g/ha ([1]; in Brassica rapa): 100%; logP (physchem): 1.54
"c1cncc(-n2cc(-c3cccc(-c4nccnn4)n3)cn2)c1 [Example 7, 3-[6-(1-Pyridin-3-yl-1H-pyrazol-4-yl)pyridin-2-yl]-[1,2,4]triazine]",,,pest or weed control at 500 g/ha ([1]; in Brassica rapa): 100%; logP (physchem): 1.32
Cn1c(C(F)(F)F)nn(-c2cccc(-c3cnn(-c4cccnc4)c3)n2)c1=O [Example 16],2.1,90,"activity (effect in %, beetle larvae killed) [3]: 100%; activity (effect in %, caterpillars killed) [4]: 100%"
FC(F)(F)c1ccc(-c2cnn(-c3cccnc3)c2)nc1 [Example 22],2.38,100,"activity (effect in %, beetle larvae killed) [3]: 100%"
COC(=O)CN(C)c1cccc(-c2cnn(-c3cccnc3)c2)n1 [Example 32],2.18,100,"activity (effect in %, caterpillars killed) [4]: 100%"
c1cnc(-c2cccc(-c3cnn(-c4cncnc4)c3)n2)nc1 [Example 34],1.17,100,"activity (effect in %, spider mites killed) [5]: 90%"
CN1CCN(C(=O)c2cccc(-c3cnn(-c4cccnc4)c3)n2)CC1 [Example 100],0.46,100,

# Now from value to molecule, other results behind:
chromatographic logP [2],SMILES,"pest or weed control at 500 g/ha [1, 6] [%]",further results
0.01,c1cncc(-n2cc(-c3ccncc3)cn2)c1 [Example 101],100,logP [2]: 1.24
1.64,O=[N+]([O-])c1cnc(-n2ccc(-c3cnn(-c4cccnc4)c3)n2)nc1 [Example 102],100,
2.21,O=C(Nc1cccc(-c2cnn(-c3cccnc3)c2)n1)C(F)(F)F [Example 103],90,logP [2]: 2.28
1.77,Fc1cccc(-c2cnn(-c3cccnc3)c2)n1 [Example 105],80,
0.64,Nc1cccc(-c2cnn(-c3cncc(F)c3)c2)n1 [Example 106],90,logP [2]: 1.59
2.36,FC(F)(F)c1cccc(-c2cnn(-c3cncnc3)c2)n1 [Example 107],90,logP [2]: 2.38
2.2,N#Cc1cccc(-c2cnn(-c3cncc(F)c3)c2)n1 [Example 108],90,
2.11,O=C(NCC(F)(F)F)c1cnc(-c2cnn(-c3cccnc3)c2)cc1C(F)(F)F [Example 109],90,logP [2]: 2.18
1.56,O=Cc1cccc(-c2cnn(-c3cccnc3)c2)n1 [Example 110],80,
1.37,c1cncc(-n2cc(-c3cnn(-c4cccnc4)c3)cn2)c1 [Example 112],80,
